Source: the NIST ThermoML archive (doi:10.1021/je049776w)
Numbers after ± are expanded uncertainties.

Legend:
[1] = 101.3 kPa, Liquid
[2] = xn = mol fraction of the nth substance listed; conditions: 101.3 kPa, Liquid

Cc1ccc(C)cc1 [1,4-dimethylbenzene]
[1]
Conditions	mass density [kg/m3]	viscosity [mPa·s]
298.15 K	856.7 ± 0.7	0.6162 ± 0.017
303.15 K	852.35 ± 0.72	0.5715 ± 0.015
313.15 K	843.64 ± 0.74	0.508 ± 0.014
323.15 K	834.9 ± 0.77	0.4599 ± 0.013
333.15 K	826.09 ± 0.8	0.4298 ± 0.013
343.15 K	817.17 ± 0.83	0.3783 ± 0.012
353.15 K	808.22 ± 0.85	0.3382 ± 0.011

Cc1ccc(C)cc1 [1,4-dimethylbenzene] + C1CCCCC1
[2]
Conditions	mass density, 298.15 K [kg/m3]	mass density, 303.15 K [kg/m3]	mass density, 313.15 K [kg/m3]	mass density, 323.15 K [kg/m3]	mass density, 333.15 K [kg/m3]	viscosity, 298.15 K [mPa·s]	viscosity, 303.15 K [mPa·s]	viscosity, 313.15 K [mPa·s]	viscosity, 323.15 K [mPa·s]	viscosity, 333.15 K [mPa·s]
x1 = 0.0809	779.58 ± 0.94	774.92 ± 0.95	765.5 ± 0.98	755.99 ± 1	746.36 ± 1	0.8232 ± 0.021	0.7475 ± 0.019	0.6401 ± 0.017	0.5594 ± 0.015	0.4874 ± 0.014
x1 = 0.1655	786.02 ± 0.92	781.39 ± 0.93	772.07 ± 0.96	762.67 ± 0.99	753.14 ± 1	0.757 ± 0.02	0.6992 ± 0.018	0.5981 ± 0.016	0.526 ± 0.015	0.4646 ± 0.013
x1 = 0.2537	792.96 ± 0.9	788.36 ± 0.91	779.14 ± 0.94	769.83 ± 0.97	760.42 ± 1	0.7177 ± 0.019	0.6524 ± 0.017	0.5739 ± 0.016	0.5037 ± 0.014	0.452 ± 0.013
x1 = 0.3457	800.58 ± 0.88	796.02 ± 0.89	786.88 ± 0.92	777.65 ± 0.95	768.33 ± 0.98	0.6773 ± 0.018	0.6311 ± 0.017	0.5481 ± 0.015	0.4861 ± 0.014	0.4338 ± 0.013
x1 = 0.4422	808.68 ± 0.85	804.15 ± 0.86	795.1 ± 0.89	785.98 ± 0.92	776.74 ± 0.95	0.6575 ± 0.017	0.6059 ± 0.016	0.5313 ± 0.015	0.4722 ± 0.014	0.423 ± 0.013
x1 = 0.5431	817.38 ± 0.82	812.89 ± 0.84	803.91 ± 0.87	794.86 ± 0.89	785.72 ± 0.92	0.6326 ± 0.017	0.5868 ± 0.016	0.5185 ± 0.014	0.4638 ± 0.013	0.4186 ± 0.013
x1 = 0.6491	826.54 ± 0.8	822.09 ± 0.81	813.16 ± 0.84	804.19 ± 0.86	795.14 ± 0.89	0.6219 ± 0.017	0.5787 ± 0.016	0.5108 ± 0.014	0.458 ± 0.013	0.4131 ± 0.013
x1 = 0.7603	836.16 ± 0.77	831.71 ± 0.78	822.86 ± 0.81	813.98 ± 0.83	805 ± 0.86	0.6175 ± 0.017	0.5726 ± 0.015	0.511 ± 0.014	0.4569 ± 0.013	0.4109 ± 0.013
x1 = 0.8771	846.17 ± 0.73	841.79 ± 0.75	833 ± 0.78	824.18 ± 0.8	815.3 ± 0.83	0.6139 ± 0.017	0.5701 ± 0.015	0.5052 ± 0.014	0.4567 ± 0.013	0.4124 ± 0.013
x1 = 1	856.7 ± 0.7	852.35 ± 0.72	843.64 ± 0.74	834.9 ± 0.77	826.09 ± 0.8	0.6162 ± 0.017	0.5715 ± 0.015	0.508 ± 0.014	0.4599 ± 0.013	0.4298 ± 0.013

CN1CCCC1=O [N-methylpyrrolidone]
[1]
Conditions	mass density [kg/m3]	viscosity [mPa·s]
303.15 K	1023.47 ± 2.7	1.554 ± 0.053
313.15 K	1014.55 ± 2.7	1.332 ± 0.046
323.15 K	1005.66 ± 2.7	1.16 ± 0.041
333.15 K	996.71 ± 2.6	1.022 ± 0.036
343.15 K	987.75 ± 2.6	0.9084 ± 0.032
353.15 K	978.76 ± 2.6	0.8127 ± 0.029

CN1CCCC1=O [N-methylpyrrolidone] + Cc1ccc(C)cc1
[2], x2 = 0
Conditions	mass density [kg/m3]	viscosity [mPa·s]
303.15 K	1023.47 ± 2.7	1.554 ± 0.053
313.15 K	1014.55 ± 2.7	1.332 ± 0.046
323.15 K	1005.66 ± 2.7	1.16 ± 0.041
333.15 K	996.71 ± 2.6	1.022 ± 0.036
343.15 K	987.75 ± 2.6	0.9084 ± 0.032
353.15 K	978.76 ± 2.6	0.8127 ± 0.029

C1CCCCC1 [cyclohexane]
[1]
Conditions	mass density [kg/m3]	viscosity [mPa·s]
298.15 K	773.82 ± 0.96	0.9027 ± 0.023
303.15 K	769.1 ± 0.97	0.8205 ± 0.021
313.15 K	759.61 ± 1	0.6963 ± 0.018
323.15 K	749.98 ± 1	0.5984 ± 0.016
333.15 K	740.23 ± 1.1	0.5195 ± 0.015

C1CCCCC1 [cyclohexane] + Cc1ccc(C)cc1
[2], x2 = 0
Conditions	mass density [kg/m3]	viscosity [mPa·s]
298.15 K	773.82 ± 0.96	0.9027 ± 0.023
303.15 K	769.1 ± 0.97	0.8205 ± 0.021
313.15 K	759.61 ± 1	0.6963 ± 0.018
323.15 K	749.98 ± 1	0.5984 ± 0.016
333.15 K	740.23 ± 1.1	0.5195 ± 0.015

CCCCCCC [heptane]
[1]
Conditions	mass density [kg/m3]	viscosity [mPa·s]
298.15 K	679.9 ± 1.3	0.4009 ± 0.012
303.15 K	675.65 ± 1.3	0.375 ± 0.012
313.15 K	667.08 ± 1.3	0.3373 ± 0.011
323.15 K	658.37 ± 1.3	0.3074 ± 0.011
333.15 K	649.53 ± 1.4	0.2793 ± 0.01
343.15 K	640.47 ± 1.4	0.2541 ± 0.0099

CCCCCCC [heptane] + Cc1ccc(C)cc1
[2], x2 = 0
Conditions	mass density [kg/m3]	viscosity [mPa·s]
298.15 K	679.9 ± 1.3	0.4009 ± 0.012
303.15 K	675.65 ± 1.3	0.375 ± 0.012
313.15 K	667.08 ± 1.3	0.3373 ± 0.011
323.15 K	658.37 ± 1.3	0.3074 ± 0.011
333.15 K	649.53 ± 1.4	0.2793 ± 0.01
343.15 K	640.47 ± 1.4	0.2541 ± 0.0099

CCCCCCCC [octane]
[1]
Conditions	mass density [kg/m3]	viscosity [mPa·s]
298.15 K	699.9 ± 1.2	0.5206 ± 0.015
303.15 K	695.72 ± 1.2	0.4837 ± 0.014
313.15 K	687.5 ± 1.2	0.4306 ± 0.013
323.15 K	679.37 ± 1.3	0.3864 ± 0.012
333.15 K	671.02 ± 1.3	0.3495 ± 0.011
343.15 K	662.54 ± 1.3	0.3139 ± 0.011
353.15 K	653.8 ± 1.4	0.284 ± 0.01

CCCCCCCC [octane] + Cc1ccc(C)cc1
[2], x2 = 0
Conditions	mass density [kg/m3]	viscosity [mPa·s]
298.15 K	699.9 ± 1.2	0.5206 ± 0.015
303.15 K	695.72 ± 1.2	0.4837 ± 0.014
313.15 K	687.5 ± 1.2	0.4306 ± 0.013
323.15 K	679.37 ± 1.3	0.3864 ± 0.012
333.15 K	671.02 ± 1.3	0.3495 ± 0.011
343.15 K	662.54 ± 1.3	0.3139 ± 0.011
353.15 K	653.8 ± 1.4	0.284 ± 0.01
